The subject of the assay is Molt-4 cells. Kind of assay: Molt-4 cell killing activity test (CCK-8). In kind it is cell-based. The conditions noted are these: for activity for killing Molt-4 cells, in words: comparison with C1, the targeting ligand or control molecules; for killing Molt-4 cells at different concentrations (Figure 1), in words: 0.001-3 µM, comparison with control molecules. Here is the method: Molt-4 cells were cultured and amplified in 10 cm dishes by using RPMI-1640 medium supplemented with 10% fetal bovine serum. Actively growing and healthy Molt-4 cells were collected, centrifuged at 1000 rpm for 5 minutes, and after removing the supernatant, the cells were resuspended in fresh RPMI-1640 medium containing 10% fetal bovine serum. Cell counting was then performed. The cell density was adjusted to 120,000 cells per milliliter, and 100 µL of the cell suspension was added to each well of a 96-well transparent cell culture plate. It was noted that the edge wells of the 96-well plate were not used for testing; and 300 µL of PBS alone was added to these wells to reduce medium evaporation.
The small molecule compounds to be tested for activity were prepared. A series of small molecule concentration gradients (0.001, 0.003, 0.01, 0.03, 0.1, 0.3, 1, and 3 µM) were pre-set, and a series of 2× drug dilutions for the above concentrations were prepared in RPMI-1640 medium containing 10% fetal bovine serum. 100 µL of the above medium containing the gradient concentrations of the drug was added to each well of a 96-well plate pre-seeded with cells, so that the final drug concentration in each well was the pre-set concentration gradient. Three replicate wells were used for each tested drug concentration. The 96-well plate was placed back in a 37°C incubator, and the cell viability was measured after three days.
The plate was taken out three days after adding the drugs, and 100 µL of pre-prepared CCK-8 working solution was added to each well. The CCK-8 working solution was obtained through diluting a CCK-8 stock solution (C0041, Beyotime) by 10-fold volumn with a serum-free RPMI-1640 medium. The 96-well plates with the added CCK-8 working solution were placed back in the 37°C incubator and incubated for 0.5-2 hours. The plates were then taken out, and the absorbance value (OD value) of each well was measured at a wavelength of 450 nm, and the cell viability in each experimental group was calculated according to the following formula: Relative cell viability (%) = […] × 100%.

Where [1] appears, read: Homo sapiens, 72 h, Molt-4 cells, three days, CCK-8, read-out: EC50 (Molt-4).
Setting [2] is: Homo sapiens, Bcl-xL-positive Molt-4 cells, read-out: cellular activity / killing activity (Molt-4 cells).

The structures appear in SMILES notation. Like-named read-outs stand apart in the source and are kept apart here. Where only a bound is given, the exact number is not on record here.

In the case of `O=C1CCC(N2C(=O)c3cccc(NCCOCCOCCOCCOCCNC(=O)c4nc(N5CCc6cccc(C(=O)Nc7nc8ccccc8s7)c6C5)ccc4CCCOc4ccc(C#CCN5CCNCC5)cc4F)c3C2=O)C(=O)N1` (stereo not drawn) [AF4], the “activity for killing Molt-4 cells, in words” value (“activity” for short) is recorded as “lower killing activity or loss the function”. Moreover, the EC50 under setting [1] is above 1000 nM. Taken in the same sequence, the figures for `Cc1c(-c2ccc(N3CCc4cccc(C(=O)Nc5nc6ccccc6s5)c4C3)nc2C(=O)NCCOCCOCCNc2cccc3c2C(=O)N(C2CCC(=O)NC2=O)C3=O)cnn1CC12CC3CC(CC(C3)C1)C2` (stereo not drawn) [APF2] were “good cellular activity similar to those of the targeting ligand per se” and below 10 nM. Taken in the same sequence, the figures for `Cc1c(-c2ccc(N3CCc4cccc(C(=O)Nc5nc6ccccc6s5)c4C3)nc2C(=O)NCCOCCOCCOCCNc2cccc3c2C(=O)N(C2CCC(=O)NC2=O)C3=O)cnn1CC12CC3CC(CC(C3)C1)C2` (stereo not drawn) [APF3] were “good cellular activity similar to those of the targeting ligand per se” and below 10 nM.

With `Cc1c(-c2ccc(N3CCc4cccc(C(=O)Nc5nc6ccccc6s5)c4C3)nc2C(=O)NCCOCCOCCOCCOCCNc2cccc3c2C(=O)N(C2CCC(=O)NC2=O)C3=O)cnn1CC12CC3CC(CC(C3)C1)C2` (stereo not drawn) [APF4], the “activity” value is “good cellular activity similar to those of the targeting ligand per se”. In addition, under setting [1], the EC50 is below 10 nM. As to `CN[C@@H](C)C(=O)N[C@H](C(=O)N1CCC[C@H]1c1nc(C(=O)c2cccc(OCCN3CCC(CN4CCN(CC#Cc5ccc(OCCCc6ccc(N7CCc8cccc(C(=O)Nc9nc%10ccccc%10s9)c8C7)nc6C(=O)O)c(F)c5)CC4)CC3)c2)cs1)C1CCCCC1` [APL-1], the EC50 under setting [1] was 10 to 100 nM.

On to `Cc1ncsc1-c1ccc([C@H](C)NC(=O)[C@@H]2C[C@@H](O)CN2C(=O)[C@@H](NC(=O)CCN2CCC(CN3CCN(CC#Cc4ccc(OCCCc5ccc(N6CCc7cccc(C(=O)Nc8nc9ccccc9s8)c7C6)nc5C(=O)O)c(F)c4)CC3)CC2)C(C)(C)C)cc1` [APQ3], for which the EC50 under setting [1] lay in the range of 10 to 100 nM. Consider `O=C1CCN(c2ccc(N3CCN(C(=O)CCN4CCN(CC#Cc5ccc(OCCCc6ccc(N7CCc8cccc(C(=O)Nc9nc%10ccccc%10s9)c8C7)nc6C(=O)O)c(F)c5)CC4)CC3)cc2)C(=O)N1` [APQ5a], for which the EC50 runs as follows: under setting [1], below 10 nM; under setting [2], below 10 nM.

`O=C1CCN(c2ccc(N3CCN(C(=O)CCCN4CCN(CC#Cc5ccc(OCCCc6ccc(N7CCc8cccc(C(=O)Nc9nc%10ccccc%10s9)c8C7)nc6C(=O)O)c(F)c5)CC4)CC3)cc2)C(=O)N1` [APQ5b]: the EC50 under setting [1] is 10 to 100 nM. Still for that read-out and setting: the value for `O=C1CCN(c2ccc(N3CC(CN4CCN(CC#Cc5ccc(OCCCc6ccc(N7CCc8cccc(C(=O)Nc9nc%10ccccc%10s9)c8C7)nc6C(=O)O)c(F)c5)CC4)C3)cc2)C(=O)N1` [APQ6b] was 10 to 100 nM. As to `O=C1CCN(c2ccc(N3CCN(C4CCN(CC#Cc5ccc(OCCCc6ccc(N7CCc8cccc(C(=O)Nc9nc%10ccccc%10s9)c8C7)nc6C(=O)O)c(F)c5)CC4)CC3)cc2)C(=O)N1` [APQ7a], the “killing Molt-4 cells at different concentrations (Figure 1), in words” value was “comparable to A-1331852”. Further, the EC50 under setting [1] is below 10 nM. Further, the EC50 under setting [2] is below 10 nM.

With `O=C1CCN(c2ccc(N3CCN(CC4CCN(CC#Cc5ccc(OCCCc6ccc(N7CCc8cccc(C(=O)Nc9nc%10ccccc%10s9)c8C7)nc6C(=O)O)c(F)c5)CC4)CC3)cc2)C(=O)N1` [APQ7b], under setting [1], the EC50 is 10 to 100 nM. On the same count and under the same terms, the value for `O=C1CCN(c2ccc(OCCN3CCC(CN4CCN(CC#Cc5ccc(OCCCc6ccc(N7CCc8cccc(C(=O)Nc9nc%10ccccc%10s9)c8C7)nc6C(=O)O)c(F)c5)CC4)CC3)cc2)C(=O)N1` [APQ8] was 10 to 100 nM.

`COC(=O)c1nc(N2CCc3cccc(C(=O)Nc4nc5ccccc5s4)c3C2)ccc1CCCOc1ccc(C#CCN2CCN(c3ccc(N4CCC(=O)NC4=O)cc3)CC2)cc1F` [APQ9-1]: the “activity” value is listed as “lower killing activity or loss the function”. Moreover, the EC50 under setting [1] was above 1000 nM. Taken in the same sequence, the figures for `CC(C)(C)OC(=O)c1nc(N2CCc3cccc(C(=O)Nc4nc5ccccc5s4)c3C2)ccc1CCCOc1ccc(C#CCN2CCN(CC3CCN(c4ccc(N5CCC(=O)NC5=O)cc4)CC3)CC2)cc1F` [APQ10-1] were “lower killing activity or loss the function” and above 1000 nM. Regarding `O=C1CCC(n2nnc3ccc(NCCN4CCC(CN5CCN(CC#Cc6ccc(OCCCc7ccc(N8CCc9cccc(C(=O)Nc%10nc%11ccccc%11s%10)c9C8)nc7C(=O)O)c(F)c6)CC5)CC4)cc3c2=O)C(=O)N1` (stereo not drawn) [APQ11], the “killing Molt-4 cells at different concentrations (Figure 1), in words” value is recorded as “comparable to A-1331852”. Further, the EC50 under setting [1] is below 10 nM. Under setting [2], the EC50 was below 10 nM.

Take `COc1cc(N2CCN(CC#Cc3ccc(OCCCc4ccc(N5CCc6cccc(C(=O)Nc7nc8ccccc8s7)c6C5)nc4C(=O)O)c(F)c3)CC2)ccc1N1CCC(=O)NC1=O` [APQ902a]: the EC50 is below 10 nM under setting [1] and below 10 nM under setting [2]. For `Cc1c(-c2ccc(N3CCc4cccc(C(=O)Nc5nc6ccccc6s5)c4C3)nc2C(=O)NCCn2cc(COCCNc3cccc4c3C(=O)N(C3CCC(=O)NC3=O)C4=O)nn2)cnn1CC12CC3CC(CC(C3)C1)C2` (stereo not drawn) [APR1], the “activity” value was “good cellular activity similar to those of the targeting ligand per se”. Besides, under setting [1], the EC50 was below 10 nM. Taken in the same sequence, the figures for `Cc1c(-c2ccc(N3CCc4cccc(C(=O)Nc5nc6ccccc6s5)c4C3)nc2C(=O)NCCn2cc(COCCOCCNc3cccc4c3C(=O)N(C3CCC(=O)NC3=O)C4=O)nn2)cnn1CC12CC3CC(CC(C3)C1)C2` (stereo not drawn) [APR2] were “good cellular activity similar to those of the targeting ligand per se” and below 10 nM.

`Cc1c(-c2ccc(N3CCc4cccc(C(=O)Nc5nc6ccccc6s5)c4C3)nc2C(=O)NCCn2cc(COCCOCCOCCNc3cccc4c3C(=O)N(C3CCC(=O)NC3=O)C4=O)nn2)cnn1CC12CC3CC(CC(C3)C1)C2` (stereo not drawn) [APR3]: the “activity” value is reported as “good cellular activity similar to those of the targeting ligand per se”. Also, under setting [1], the EC50 is below 10 nM. Taken in the same sequence, the figures for `Cc1c(-c2ccc(N3CCc4cccc(C(=O)Nc5nc6ccccc6s5)c4C3)nc2C(=O)NCCn2cc(COCCOCCOCCOCCNc3cccc4c3C(=O)N(C3CCC(=O)NC3=O)C4=O)nn2)cnn1CC12CC3CC(CC(C3)C1)C2` (stereo not drawn) [APR4] were “good cellular activity similar to those of the targeting ligand per se” and below 10 nM. Taken in the same sequence, the figures for `[2H]C1([2H])Cc2cccc(C(=O)Nc3nc4ccccc4s3)c2CN1c1ccc(-c2cnn(CC34CC5CC(CC(C5)C3)C4)c2C)c(C(=O)NCCOCCOCCOCCNc2cccc3c2C(=O)N(C2CCC(=O)NC2=O)C3=O)n1` (stereo not drawn) [Compound A13D6-PF3] were “good cellular activity similar to those of the targeting ligand per se” and below 10 nM. For `CN(C)CC#Cc1ccc(OCCCc2sc(N3CCc4cccc(C(=O)Nc5nc6ccccc6s5)c4C3)nc2C(=O)O)c(F)c1` [Compound A-1155463, reference compound], where the note is “Molt-4 cells, three days, CCK-8, read-out: EC50 (Molt-4)”, the EC50 is below 10 nM.

The record behind these values is patent EP4759810A1, “PROTAC TARGETING BCL-XL PROTEIN AND USE THEREOF” (BEIJING SUNCELL BIO-MEDICAL CO., LTD., priority 2023, dated 2025).
